Earlier results, collected in patent US10172913B2, “Orally disintegrating solid pharmaceutical dosage unit containing a partus control substance” (Oxytone Bioscience B.V., priority 2014, dated 2019).
Bridge positions count the residues as written; N and C are the ends. Square brackets hold non-standard residues; d marks the D form. Peptide text beside a SMILES is read from it. Orn = NCCC[C@H](N)C(=O)O; Mpa = O=C(O)CCS

Columns and labels:
[1] = in vivo
[2] = lyophilized

Row | Structure (SMILES) | half-life in the blood [1] | time stable at room temperature [2]
1 | CC[C@H](C)[C@@H]1NC(=O)[C@H](Cc2ccc(O)cc2)NC(=O)[C@@H](N)CSSC[C@@H](C(=O)N2CCC[C@H]2C(=O)N[C@@H](CC(C)C)C(=O)NCC(N)=O)NC(=O)[C@H](CC(N)=O)NC(=O)[C@H](CCC(N)=O)NC1=O [Oxytocin, cysteine-tyrosine-isoleucine-glutamine-asparagine-cysteine-proline-leucine-glycine-amide] | about three | –
2 | CCOc1ccc(C[C@H]2NC(=O)CCSSC[C@@H](C(=O)N3CCC[C@H]3C(=O)N[C@@H](CCCN)C(=O)NCC(N)=O)NC(=O)[C@H](CC(N)=O)NC(=O)[C@H]([C@@H](C)O)NC(=O)[C@H]([C@@H](C)CC)NC2=O)cc1 [atosiban] ([Mpa][dY](Et)ITNCP[Orn]G-NH2; disulfide 1-6) | – | 3 weeks
